Reference: US7799781B2, “5,6,7,8-tetrahydropteridine derivatives as HSP90 inhibitors” (AstraZeneca AB, priority 2007, dated 2010)

What follows are compounds tested against T1, HSP90α (Homo sapiens, UniProt P07900) (assay: Test (a) In Vitro Binding Assay (fluorescence polarisation, binding to the ATP pocket of HSP90α)). Settings: FP probe displacement, geometric mean where tested more than once.
T1 construct: 6H is tagged HSP90α protein (amino acids 2-732) expressed in E. coli; 6His; made in house; host or cells: E. coli
Procedure: Test (a) In Vitro Binding Assay
Test (a) measures the ability of a compound to bind to the ATP pocket of HSP90α. 6H is tagged HSP90α protein (amino acids 2-732) expressed in E. coli was purified and stored at −80° C. in aliquots. Assay measurements were performed in assay buffer comprising 20 mM HEPES pH 7.4, 50 mM KCl, 20 mM NaHMoO4, 0.01% Nonidet P40, 2 mM DTT and 0.1 mg/ml BSA. Following resuspension in DMSO, the FP probe 3-[[5-(5-ethyl-2,4-dihydroxy-phenyl)-4-(4-methoxyphenyl)2H-pyrazole-3-carbonyl]amino]propyl-Cy3B-amide; 14-(2-{[3-({[3-(5-ethyl-2,4-dihydroxyphenyl)-4-(4-methoxyphenyl)-1H-pyrazol-5-yl]carbonyl}amino)propyl]amino}-2-oxoethyl)-16,16,18,18-tetramethyl-2-sulfo-6,7,7a,8a,9,10,16,18-octahydrobenzo[2″,3″]indolizino [8″,7″:5′,6′]pyrano[3′,2′:3,4]pyrido[1,2-a]indol-5-ium) was diluted to a final concentration of 5 nM in assay buffer. Test compounds were prepared by dilution in 100% DMSO to give the appropriate dose range and dispensed into a 384 well assay plate as a 6X concentrate. Upon addition of recombinant HSP90α to a final assay concentration of 1 μg/ml, FP probe was added and plates incubated at room temperature for 1 to 4 hours. Final DMSO concentration was 1% in a total assay volume of 18 μl. Fluorescence Polarisation measurements were made using a Tecan Ultra plate reader using an excitation wavelength of 530 nm and an emission wavelength of 590 nm. Millipolarisation (mP) values were estimated using Xfluor software.
The data in the above table was generated in an assay substantially as described above in relation to in-vitro Binding Assay (a). Some of the compounds shown in the table were tested more than once in the assay. For those compounds the IC50 value shown is the geometric mean of the measured IC50 values. Therefore, as will be understood, the IC50 values quoted above are not absolute and further measurements of the IC50 values may result in a different mean IC50 value.

| SMILES | IC50 [µM] |
| --- | --- |
| COc1c(C)cnc(CN2c3nc(N)ncc3NC(=O)[C@@H]2C)c1C [Example 1, (7S)-2-amino-8-[(4-methoxy-3,5-dimethylpyridin-2-yl)methyl]-7-methyl-7,8-dihydropteridin-6(5H)-one] | 10 |
| CCC[C@H]1C(=O)Nc2cnc(N)nc2N1Cc1ncc(C)c(OC)c1C [Example 2.1, (7S)-2-amino-8-[(4-methoxy-3,5-dimethylpyridin-2-yl)methyl]-7-propyl-7,8-dihydropteridin-6(5H)-one] | 14.8 |
| COc1c(C)cnc(CN2c3nc(N)ncc3NC(=O)[C@H]2C)c1C [Example 2.2, (7R)-2-amino-8-[(4-methoxy-3,5-dimethylpyridin-2-yl)methyl]-7-methyl-7,8-dihydropteridin-6(5H)-one] | 0.857 |
| COc1c(C)cnc(CN2CC(=O)Nc3cnc(N)nc32)c1C [Example 2.3, 2-amino-8-[(4-methoxy-3,5-dimethylpyridin-2-yl)methyl]-7,8-dihydropteridin-6(5H)-one] | 1.16 |
| COc1c(C)cnc(CN2c3nc(N)ncc3N(C)C(=O)[C@@H]2C)c1C [Example 3, (7S)-2-amino-8-[(4-methoxy-3,5-dimethylpyridin-2-yl)methyl]-5,7-dimethyl-7,8-dihydropteridin-6(5H)-one] | 18.4 |
| CCN1C(=O)[C@H](C)N(Cc2ncc(C)c(OC)c2C)c2nc(N)ncc21 [Example 4.1, (7S)-2-amino-5-ethyl-8-[(4-methoxy-3,5-dimethylpyridin-2-yl)methyl]-7-methyl-7,8-dihydropteridin-6(5H)-one] | 16.7 |
| COc1c(C)cnc(CN2c3nc(N)ncc3N(C)C(=O)[C@H]2C)c1C [Example 4.2, (7R)-2-amino-8-[(4-methoxy-3,5-dimethylpyridin-2-yl)methyl]-5,7-dimethyl-7,8-dihydropteridin-6(5H)-one] | 0.788 |
| COc1c(C)cnc(CN2CC(=O)N(C)c3cnc(N)nc32)c1C [Example 4.3, 2-amino-8-[(4-methoxy-3,5-dimethylpyridin-2-yl)methyl]-5-methyl-7,8-dihydropteridin-6(5H)-one] | 0.33 |
| COc1c(C)cnc(CN2c3nc(N)ncc3NC[C@@H]2C)c1C [Example 5, (7S)-8-[(4-methoxy-3,5-dimethylpyridin-2-yl)methyl]-7-methyl-5,6,7,8-tetrahydropteridin-2-amine] | 81.1 |

Continued, values first:

| IC50 [µM] | SMILES |
| --- | --- |
| 152 | COc1c(C)cnc(CN2c3nc(N)ncc3N(C)C[C@@H]2C)c1C [Example 6.1, (7S)-8-[(4-methoxy-3,5-dimethylpyridin-2-yl)methyl]-5,7-dimethyl-5,6,7,8-tetrahydropteridin-2-amine] |
| 2.87 | COc1c(C)cnc(CN2c3nc(N)ncc3NC[C@H]2C)c1C [Example 6.2, (7R)-8-[(4-methoxy-3,5-dimethylpyridin-2-yl)methyl]-7-methyl-5,6,7,8-tetrahydropteridin-2-amine] |
| 15.6 | COc1c(C)cnc(CN2c3nc(N)ncc3N(C)C[C@H]2C)c1C [Example 6.3, (7R)-8-[(4-methoxy-3,5-dimethylpyridin-2-yl)methyl]-5,7-dimethyl-5,6,7,8-tetrahydropteridin-2-amine] |
| 13 | COc1c(C)cnc(CN2CCN(C)c3cnc(N)nc32)c1C [Example 6.4, 8-[(4-methoxy-3,5-dimethylpyridin-2-yl)methyl]-5-methyl-5,6,7,8-tetrahydropteridin-2-amine] |
| 1.94 | COc1c(C)cnc(CN2c3nc(N)ncc3NC(=O)[C@H]2CC(C)C)c1C [Example 7.1, (7R)-2-amino-8-[(4-methoxy-3,5-dimethyl-pyridin-2-yl)methyl]-7-(2-methylpropyl)-7,8-dihydropteridin-6(5H)-one] |
| 0.526 | COc1c(C)cnc(CN2c3nc(N)ncc3NC(=O)[C@H]2Cc2ccccc2)c1C [Example 7.2, (7R)-2-amino-7-benzyl-8-[(4-methoxy-3,5-dimethyl-pyridin-2-yl)methyl]-7,8-dihydropteridin-6(5H)-one] |

Same assay, conditions: verbal assessment

| activity in the enzyme assay, test (a) | SMILES |
| --- | --- |
| low activity | COc1c(C)cnc(CN2c3nc(N)ncc3NC[C@@H]2C)c1C [Example 5, (7S)-8-[(4-methoxy-3,5-dimethylpyridin-2-yl)methyl]-7-methyl-5,6,7,8-tetrahydropteridin-2-amine] |
| low activity | COc1c(C)cnc(CN2c3nc(N)ncc3N(C)C[C@@H]2C)c1C [Example 6.1, (7S)-8-[(4-methoxy-3,5-dimethylpyridin-2-yl)methyl]-5,7-dimethyl-5,6,7,8-tetrahydropteridin-2-amine] |
